Experimental data published in patent publication EP0411184B1, “Ascorbic acid derivative” (NIPPON HYPOX LABORATORIES INCORPORATED, priority 1989, dated 1991).

Test: Antioxidant action using stable radicals: reduction activity of DPPH (M. S. Blois method)
Type: biochemical
Conditions: 0.1 mM DPPH solution in ethanol, absorbance at 517 nm after 20 minutes, difference from solvent control (0.5% or less DMF); read-out: 50% radical eliminating concentration
Procedure: Test example 1 (Antioxidant action examined by using stable radicals)
Reduction activity of α,α-diphenyl-β-picrylhydrazyl (DPPH) which was a stable free radical was examined according to the M. S. Blois method (Nature, vol. 181, page 1199, 1958) and used as an index to antioxidant action. Thus, specimens were added to 3 mℓ of a 0.1 mM DPPH solution in ethanol, and absorbance at a wavelength of 517 nm was measured using a spectrophotometer after 20 minutes. The difference in absorbance from the solvent control [0.5% or less of dimethylformamide (DMF)] was taken as the reduction activity.

IC50 [µM]	Structure (SMILES)
32	CCCCCCCCCCCCCCCCCCOC1=C(O)C(=O)O[C@@H]1[C@@H](O)CO [compound 101, reference compound]
18	CCCCCCCCCCCCOC1=C(O)C(=O)O[C@@H]1[C@@H](O)CO [compound 102]
19	CCCCCCCCOC1=C(O)C(=O)O[C@@H]1[C@@H](O)CO [compound 103]
23	CCCCOC1=C(O)C(=O)O[C@@H]1[C@@H](O)CO [compound 104]
20	CCOC(=O)CCCCOC1=C(O)C(=O)O[C@@H]1[C@@H](O)CO [compound 105]
21	CCOC(=O)CCCOC1=C(O)C(=O)O[C@@H]1[C@@H](O)CO [compound 106]
27	O=C(O)CCCOC1=C(O)C(=O)O[C@@H]1[C@@H](O)CO [compound 107]
19	CCOC(=O)C(C)OC1=C(O)C(=O)O[C@@H]1[C@@H](O)CO (stereo partly drawn) [compound 108]
18	CCCCOC(=O)COC1=C(O)C(=O)O[C@@H]1[C@@H](O)CO [compound 109]
23	CCCCCCCCCCOC(=O)COC1=C(O)C(=O)O[C@@H]1[C@@H](O)CO [compound 110]
22	CCOC(=O)COC1=C(O)C(=O)O[C@@H]1[C@@H](O)CO [compound 111]
23	O=C1O[C@H]([C@@H](O)CO)C(OCC(=O)c2ccccc2)=C1O [compound 112, L-3-O-benzoylmethylascorbic acid]
23	O=C1O[C@H]([C@@H](O)CO)C(OCc2cccnc2)=C1O [compound 113, L-3-O-(3-picoyl)ascorbic acid]
24	O=C(O)CCCCCCCCCCOC1=C(O)C(=O)O[C@@H]1[C@@H](O)CO [compound 114]
22	CC(=O)COC1=C(O)C(=O)O[C@@H]1[C@@H](O)CO [compound 115]
